# Test results from patent US9856290B2, “Glycopeptide compositions and uses thereof” (SUSSEX RESEARCH LABORATORIES INC., priority 2013, dated 2018).
# Marks after values point to notes of the source that are not given here. The star is where a group is joined. Ac7‑β‑Mal = peracetylated β-maltose, CC(=O)OC[C@H]1O[C@@H](*)[C@H](OC(C)=O)[C@@H](OC(C)=O)[C@@H]1O[C@H]1O[C@H](COC(C)=O)[C@@H](OC(C)=O)[C@H](OC(C)=O)[C@H]1OC(C)=O; αGalNAc = CC(=O)N[C@@H]1[C@@H](O)[C@@H](O)[C@@H](CO)O[C@@H]1*; βGlcNAc = CC(=O)N[C@@H]1[C@@H](O)[C@H](O)[C@@H](CO)O[C@H]1*; Palmitoyl = CCCCCCCCCCCCCCCC(=O)*
# Assays:
# [1] = tested on: Human Dermal Fibroblasts (KMST-6); assay: ECM ELISA assay: elastin secretion by human dermal fibroblasts; type: cell-based; settings: 5 μM; for Elastin Secretion at 48 hours: KMST-6, 48 hours; for Elastin Secretion at 48 hours / Elastin Secretion at 72 hours: % compared to control set at 100%, normalized to total protein
# Method in brief: (§1)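 KMST-6 human dermal fibroblasts treated with 5 μM compound in serum-free medium with sodium ascorbate and β-aminopropionate fumarate for 48 and 72 h. Secreted fibronectin and elastin quantified by ELISA (450 nm, 4-parameter standard curve), normalized to total cellular protein and expressed as % of DMSO control.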
# [2] = tested on: Human Dermal Fibroblasts (KMST-6); assay: ECM ELISA assay: fibronectin secretion by human dermal fibroblasts; type: cell-based; settings: 5 μM; for Fibronectin secretion at 48 hours: KMST-6, 48 hours; for Fibronectin secretion at 48 hours / Fibronectin Secretion at 72 hours: % compared to control set at 100%, normalized to total protein
# Method in brief: as §1
# [3] = tested on: Human Dermal Fibroblasts (KMST-6); assay: Total Collagen Assay (Sirius Red Collagen Detection Kit); type: cell-based; settings: 5 μM
# Procedure: KMST-6 cells (Japan Health Sciences Foundation, JCRB0433) were seeded at 7,000 cells/mL in 60 mm tissue culture treated plates (Falcon, 353002) in complete media. The complete media consisted of the following: MEM/EBSS (Hyclone, SH30024.01), 10% Heat-Inactivated FBS (Gibco, 10082-147), 1% L-Glutamine (Hyclone, SH30031.01), 1% Nucleosides (800 mg/L Adenosine, 850 mg/L Guanidine, 730 mg/L Cytidine, 730 mg/L Uridine and 240 mg/L Thymidine), 1% Penicillin/Streptomycin (HyClone, SV30010), 1% Sodium Pyruvate (HyClone, SH30239.01), 1% Non-Essential Amino Acids (Hyclone, SH30238.01) and 0.04% Gentamicin (Gibco, 15710-064). Cells were grown for 2 days prior to treatments. The cells were washed with 1×PBS (Fisher, SH30256.01) and treated with 5 μM glycopeptides (GP003-9, GP004-3, GP004-4), reference (Pal-KTTKS, CPC Scientific, 822197), and control (DMSO, Fisher, BP231-100) in serum-free media supplemented with 50 µg/mL Sodium Ascorbate (Sigma, A4034) and 80 μg/mL β-Aminopropionate Fumarate (Sigma, A3134). The treated cells were incubated at 37° C. and 5% CO2 for 48 and 72 hours. At each timepoint, media from each treatment was collected and centrifuged at 1500 RPM for 15 minutes at 4° C. The supernatant was collected and stored at −80° C. for extracellular matrix protein quantification. The following kit was used for quantification of total collagen: Sirius Red Collagen Detection Kit (Chondrex Inc., 9062). The cells were harvested and lysed with Lysis Buffer (20 mM Tris-HCl (Sigma, T1503), 137 mM NaCl (Sigma, S9888), 2 mM EDTA (Fisher, BP118), 1% IGEPAL (Sigma, 18896), 10% Glycerol (Sigma, G5516), 100 μM PMSF (Fisher, 36978) and 10 μg/mL Leupeptin (Sigma, L2884)). They were placed on a container of ice on an orbital shaker (VWR, 89032-088) for 30 minutes. The cell lysate was centrifuged at 10,000 g for 5 minutes at 4° C. The supernatant was collected and used for protein quantification (BioRad, 500-0112). […]
# human lung fibroblasts = human lung fibroblasts in vitro; cited from earlier work
# [4] = tested on: MatTek's EpiDermFT 3D human in vitro skin model; assay: Histology (hematoxylin & eosin) of 3D human in vitro skin model; type: cell-based; settings: 5 μM, 72 hours post treatment
# Procedure: MatTek's EpiDermFT™ 3D human in vitro skin model was produced by MatTek Corporation (Ashland, Mass., USA). The 3D skin model is comprised of normal human epidermal keratinocytes (NHEK) and normal human dermal fibroblasts (NHDF) derived from neonatal-foreskin tissue and adult skin, respectively. […] The tissues were grown at air-liquid interface in Costar Snapwell™ single well tissue culture plate inserts with 0.4 μm pore size, 1.2 cm in diameter and 1.0 cm^2 surface area. For tissue maintenance, serum-free EFT-400-ASY media was used containing Dulbecco's Modified Eagle's Medium (DMEM), epidermal growth factor, insulin, hydrocortisone, 5 μg/mL gentamicin, 0.2 μg/ml amphotericin B and phenol red.
# Tissues were rinsed twice with 1% PBS and treated with 5 μM GP003-9, reference (Pal-KTTKS, CPC Scientific, 822197), and control (DMSO, Fisher, BP231-100). At 72 hours post treatment, the tissue was fixed in 10% neutral buffered formalin overnight and transferred to 1% PBS the next day. […]
# MatTek's EpiDermFT™, which is a 3D human in vitro skin model (comprised of normal human epidermal ketatinocytes and normal human dermal fibroblasts), was used to further investigate the effects of an exemplary glycosylated peptide (GP003-9 (SEQ ID NO: 6)) on human skin. […] At 72 hours post treatment, supernatants were isolated and analysed for elastin secretion. […]
# [5] = 72 hours, versus Pal-KTTKS reference
molecule,measurement,setting,value
Pal-KTT(Ac7-β-Mal)KS-OH (Palmitoyl-KTT(Ac7‑β‑Mal)KS-OH; SMILES CCCCCCCCCCCCCCCC(=O)N[C@@H](CCCCN)C(=O)N[C@H](C(=O)N[C@H](C(=O)N[C@@H](CCCCN)C(=O)N[C@@H](CO)C(=O)O)[C@@H](C)O[C@@H]1O[C@H](COC(C)=O)[C@@H](O[C@H]2O[C@H](COC(C)=O)[C@@H](OC(C)=O)[C@H](OC(C)=O)[C@H]2OC(C)=O)[C@H](OC(C)=O)[C@H]1OC(C)=O)[C@@H](C)O; listed as Homo sapiens) [GP004-3],biological activity in elastin secretion compared to control,[1]; 72 hours,greater biological activity
same,increased elastin secretion compared to control,"[1]; 72 hours, versus DMSO control",285%
same,increased secretion of elastin compared to the reference peptide,[1]; [5],252%
same,Elastin Secretion at 48 hours,[1],226.1%
same,Elastin Secretion at 72 hours,"[1]; KMST-6, 72 hours",384.7* %
same,ELASTIN (ECM Protein Summary Table),"[1]; KMST-6, 72 hours, control 100%",385*^# %
same,biological activity in fibronectin secretion compared to control,[2]; 72 hours,greater biological activity
same,increased fibronectin secretion compared to control,"[2]; 72 hours, versus DMSO control",68%
same,increased fibronectin secretion compared to reference,[2]; [5],50%
same,Fibronectin secretion at 48 hours,[2],185.0* %
same,Fibronectin Secretion at 72 hours,"[2]; KMST-6, 72 hours",168.3* %
same,FIBRONECTIN (ECM Protein Summary Table),"[2]; KMST-6, 72 hours, control 100%",168*^# %
same,increased total collagen secretion compared to control,"[3]; 72 hours, versus DMSO control",31%
same,increased total collagen secretion compared to the reference peptide,[3]; [5],21%
same,TOTAL COLLAGEN (ECM Protein Summary Table),"[3]; KMST-6, 72 hours, control 100%",131*^# %
Lys-Thr-Thr-Lys-Ser (KTTKS; listed as Homo sapiens) [pentapeptide derived from the carboxyl-terminus of type I procollagen],ECM proteins (synthesis of collagen types I and III and fibronectin),human lung fibroblasts,significantly augment the ECM proteins
"CCCCCCCCCCCCCCCC(=O)N[C@@H](CCCCN)C(=O)N[C@H](C(=O)N[C@H](C(=O)N[C@@H](CCCCN)C(=O)N[C@@H](CO)C(=O)O)[C@@H](C)O)[C@@H](C)O[C@@H]1O[C@H](COC(C)=O)[C@@H](O[C@H]2O[C@H](COC(C)=O)[C@@H](OC(C)=O)[C@H](OC(C)=O)[C@H]2OC(C)=O)[C@H](OC(C)=O)[C@H]1OC(C)=O [GP003-9, Pal-KT(Ac7-β-Mal)TKS-OH]",effect on the histology of the 3D human skin model,[4],no detrimental effect
Pal-KTTKS(β-GlcNAc)-OH (Palmitoyl-KTTKS(βGlcNAc)-OH; SMILES CCCCCCCCCCCCCCCC(=O)N[C@@H](CCCCN)C(=O)N[C@H](C(=O)N[C@H](C(=O)N[C@@H](CCCCN)C(=O)N[C@@H](CO[C@@H]1O[C@H](CO)[C@@H](O)[C@H](O)[C@H]1NC(C)=O)C(=O)O)[C@@H](C)O)[C@@H](C)O; listed as Homo sapiens) [GP002-6],Elastin Secretion at 48 hours,[1],150.7%
same,Elastin Secretion at 72 hours,"[1]; KMST-6, 72 hours",111.0%
same,Fibronectin secretion at 48 hours,[2],109.7%
same,Fibronectin Secretion at 72 hours,"[2]; KMST-6, 72 hours",115.8%
Pal-KT(α-GalNAc)-T(α-GalNAc)KS-OH (Palmitoyl-KT(αGalNAc)T(αGalNAc)KS-OH; SMILES CCCCCCCCCCCCCCCC(=O)N[C@@H](CCCCN)C(=O)N[C@H](C(=O)N[C@H](C(=O)N[C@@H](CCCCN)C(=O)N[C@@H](CO)C(=O)O)[C@@H](C)O[C@H]1O[C@H](CO)[C@H](O)[C@H](O)[C@H]1NC(C)=O)[C@@H](C)O[C@H]1O[C@H](CO)[C@H](O)[C@H](O)[C@H]1NC(C)=O; listed as Homo sapiens) [GP001-14],Elastin Secretion at 48 hours,[1],88.00%
same,Elastin Secretion at 72 hours,"[1]; KMST-6, 72 hours",98.25%
same,Fibronectin secretion at 48 hours,[2],104.8%
same,Fibronectin Secretion at 72 hours,"[2]; KMST-6, 72 hours",94.75%
